Laboratory results published in EP0939084A1, “An estrogen binding proteinaceous substance, its possible role in estrogen action, and potential use” (Rao, Ramanath B., priority 1998, dated 1999).
“Also recorded” adds a separate entry of the source. Read-outs that look alike come from different tables or passages of the source.

Columns and labels:
[1] = tested on: estrogen binding protein (EBP), 84 kD heterodimer, mouse fetal liver; experiment: Competition for / modulation of ^3H-estradiol-17β binding to EBP (charcoal assay); conditions: for inhibition of / influence on ^3H-estradiol-17β binding to EBP: competitor concentration not stated
Protocol: (§1) In brief, the procedure is as follows. […] Simultaneously tubes in duplicate without any added protein sample were set up as control. At the end of the incubation the tubes were put in an ice bath for 15 minutes to cool to the ice bath temperature. 0.5 ml of charcoal solution (0.05% heat activated charcoal plus 0.05% bovine serum albumin in tris buffer) was added, mixed and incubated further for 10 minutes. The tubes were then centrifuged at 2500 rpm for 15 minutes at 4°C to pellet the charcoal. 0.5 ml from each tube was carefully withdrawn without disturbing the charcoal pellet at the bottom of the tube and the radioactivity was measured following mixing with the scintillation cocktail. The net protein bound radioactivity was calculated after deducting the background counts based on the tubes without any added protein.

[2] = tested on: estrogen binding protein (EBP), 84 kD heterodimer, mouse fetal liver
Protocol: as §1

[3] = tested on: type II ER; conditions: literature (40-41,43); cited from earlier work
[4] = tested on: estrogen binding protein (EBP), 84 kD heterodimer, mouse fetal liver; experiment: Sucrose density gradient centrifugation of EBP incubated with ^3H-estradiol-17β and competitor; conditions: ^3H-estradiol-17β 0.85 pmol + dimethylbenzanthracene 0.42 nmol or 1.2 nmol; Fig. 17
Text: In the light of the above information attempts were made to analyse whether some of the known pollutants and carcinogens (1-OH, 3-OH, 8-OH, 10-OH benzo(a)pyrene, […]) compete in vitro with ^3H-estradiol-17β for binding site on EBP. […] Since benzo(a)pyrene is a known carcinogen it will be important to determine whether there is a structural relationship between estradiol-17β and the various hydroxy benzo(a)pyrenes. […] It is well known that DMBA is a potent carcinogen and as such it has been extensively used to induce estrogen dependent mammary and endometrial cancers in animals. […] However, this agent is still utilized to coat common plastics of daily use. […] Establishment of a correlationship between the in vitro and in vivo potency of such compounds will provide a rapid in vitro screening assay. Most importantly, such information for the first time will delineate a definitive role for an estrogen binder such as EBP in carcinogenesis and may also enable to explain why compounds such as DMBA induce tumors in estrogen responsive tissues as well as why the tumors are estrogen dependent.

C[C@]12CC[C@@H]3c4ccc(O)cc4CC[C@H]3[C@@H]1CC[C@H]2O [estradiol-17α]
inhibition of ^3H-estradiol-17β binding to EBP ([1]; competitor at 300-fold the concentration of the radiolabelled estrogen): no inhibitory effect

CC/C(=C(/CC)c1ccc(O)cc1)c1ccc(O)cc1 [diethylstilbestrol]
binding of the radiolabelled compound to EBP [2]: does not bind; also recorded: most estrogens no Des binding no competition (prog, androgen, corticoids)

C[C@]12CC[C@@H]3c4ccc(O)cc4CC[C@H]3[C@@H]1C[C@@H](O)[C@@H]2O [estriol]
relative binding activities of the competing estrogens ([1]; calculated at the 50% reduction level, compared to non-labelled estradiol-17β competing potency): 37% | inhibition of / influence on ^3H-estradiol-17β binding to EBP [1]: significantly inhibited

CC/C(=C(\c1ccc(O)cc1)c1ccc(OCCN(C)C)cc1)c1ccccc1 [4-hydroxytamoxifen]
inhibition of / influence on ^3H-estradiol-17β binding to EBP [1]: no significant inhibitory effect

NCCc1ccc(O)c(O)c1 [dopamine]
influence on ^3H-estradiol-17β binding to EBP ([1]; both at low and high molarity): did not significantly influence | inhibition of / influence on ^3H-estradiol-17β binding to EBP [1]: did not influence | binding of the radiolabelled compound to EBP ([2]; radiolabelled ligand): no binding

O[C@H](CS)[C@H](O)CS (racemic) [DTT, dithiotreitol]
sensitivity of type II ER estrogen binding to DTT [3]: highly sensitive

Cc1c2ccccc2c(C)c2c1ccc1ccccc12 [DMBA, 7,12-dimethylbenzanthracene]
inhibition of ^3H-estradiol-17β binding (sucrose gradient centrifugation) [4]: inhibition

CC/C(=C(\c1ccccc1)c1ccc(OCCN(C)C)cc1)c1ccccc1 [Tamoxifen]
inhibition of / influence on ^3H-estradiol-17β binding to EBP [1]: no significant inhibitory effect
